Data from PubChem BioAssay AID1745844 (Carcinogenic Potency Database (CPDB), 2022).
Calls of active or inactive are those of the source. How the calls were made is not given here.

System: rodent lifetime carcinogenesis bioassay, tumor incidence TD50
Experiment: carcinogenic potency in animals, long-term in vivo studies, CPDB compilation (AID 1745844)

For `COc1c(Cl)c(Cl)c(Cl)c(Cl)c1Cl`, the TD50 (mouse, strain B6C3F1, females, by gavage, site: any site (literature study), lesion: several types, types named in the paper, dosed 103 weeks, study length 104 weeks) was 47.5 mg/kg/day (inactive), the TD50 (mouse, strain B6C3F1, females, by gavage, site: liver, lesion: hepatocellular adenoma + hepatocellular carcinoma + neoplastic nodule, dosed 103 weeks, study length 104 weeks) was 63 mg/kg/day and the TD50 (mouse, strain B6C3F1, females, by gavage, site: lung, lesion: alveolar/bronchiolar adenoma + alveolar/bronchiolar carcinoma, dosed 103 weeks, study length 104 weeks) was 776 mg/kg/day. It also gave a TD50 (mouse, strain B6C3F1, males, by gavage, site: adrenal medulla + liver, lesion: pheochromocytoma, benign + hemangiosarcoma, dosed 103 weeks, study length 104 weeks) of 38.3 mg/kg/day, a TD50 (mouse, strain B6C3F1, males, by gavage, site: adrenal medulla, lesion: pheochromocytoma, benign, dosed 103 weeks, study length 104 weeks) of 77.4 mg/kg/day and a TD50 (mouse, strain B6C3F1, males, by gavage, site: any site (literature study), lesion: several types, types named in the paper, dosed 103 weeks, study length 104 weeks) of 40.2 mg/kg/day. The TD50 (mouse, strain B6C3F1, males, by gavage, site: liver, lesion: hemangiosarcoma, dosed 103 weeks, study length 104 weeks) was 68 mg/kg/day, the TD50 (rat, strain Fischer 344, females, by gavage, site: adrenal medulla, lesion: pheochromocytoma, benign, dosed 103 weeks, study length 104 weeks) was 174 mg/kg/day and the TD50 (rat, strain Fischer 344, females, by gavage, site: liver, lesion: hepatocellular adenoma + hepatocellular carcinoma + neoplastic nodule, dosed 103 weeks, study length 104 weeks) was 1180 mg/kg/day. It also gave a TD50 (rat, strain Fischer 344, males, by gavage, site: adrenal medulla, lesion: pheochromocytoma, benign, dosed 103 weeks, study length 104 weeks) of 24.8 mg/kg/day, a TD50 (rat, strain Fischer 344, males, by gavage, site: adrenal medulla, lesion: pheochromocytoma, malignant + pheochromocytoma, benign, dosed 103 weeks, study length 104 weeks) of 30 mg/kg/day and a TD50 (rat, strain Fischer 344, males, by gavage, site: liver, lesion: hepatocellular adenoma + hepatocellular carcinoma + neoplastic nodule, dosed 103 weeks, study length 104 weeks) of 6460 mg/kg/day.

`COc1ccc2nc(S(=O)Cc3ncc(C)c(OC)c3C)[nH]c2c1` (stereo unspecified) was tested, and the TD50 (rat, strain Sprague-Dawley, females, by gavage, site: gastric mucosa, lesion: carcinoid tumor, malignant, dosed 104 weeks, study length 104 weeks) was 63 mg/kg/day and the TD50 (rat, strain Sprague-Dawley, males, by gavage, site: gastric mucosa, lesion: carcinoid tumor, malignant, dosed 104 weeks, study length 104 weeks) was 1120 mg/kg/day.

With `CCCCCC(/C=C/C=C\CCCCCCCC(=O)OC)OO` (stereo unspecified) the carcinogen call (rat, strain Wistar, males, by gavage, site: gastrointestinal tract, lesion: several types, types named in the paper, dosed 30 weeks, study length 87 weeks) was “negative (inactive)” and the carcinogen call (rat, strain Wistar, males, by gavage, site: liver, lesion: one or several types, types not named, dosed 30 weeks, study length 87 weeks) was “negative (inactive)”.

With `C[C@H]([C@H](O)CCC(C)(C)O)[C@H]1CC[C@@]2(O)C3=CC(=O)[C@@H]4C[C@@H](O)[C@@H](O)C[C@]4(C)[C@H]3CC[C@]12C` the TD50 (mouse, strain Swiss albino, females, by gavage, site: any site (literature study), lesion: malignant tumor, dosed 95 weeks, study length 95 weeks) was 0.0264 mg/kg/day, the TD50 (mouse, strain Swiss albino, females, by gavage, site: mammary gland, lesion: adenocarcinoma, dosed 95 weeks, study length 95 weeks) was 0.0264 mg/kg/day and the TD50 (mouse, strain Swiss albino, males, by gavage, site: any site (literature study), lesion: malignant tumor, dosed 95 weeks, study length 95 weeks) was 0.0558 mg/kg/day. For the same compound, the TD50 (mouse, strain Swiss albino, males, by gavage, site: lung, lesion: adenocarcinoma, dosed 95 weeks, study length 95 weeks) was 0.0558 mg/kg/day.

`O=NN1CCCCCC1` was tested, and the TD50 (mouse, strain BALB/c, females, by gavage, site: esophagus, lesion: squamous-cell papilloma, dosed 30 weeks, study length 49 weeks) was 19.7 mg/kg/day, the TD50 (mouse, strain BALB/c, females, by gavage, site: liver, lesion: several types, types named in the paper, dosed 30 weeks, study length 49 weeks) was 0.797 mg/kg/day and the TD50 (mouse, strain BALB/c, females, by gavage, site: lung, lesion: several types, types named in the paper, dosed 30 weeks, study length 49 weeks) was 7.44 mg/kg/day. It also gave a TD50 (mouse, strain BALB/c, females, by gavage, site: nasal mucosa, lesion: several types, types named in the paper, dosed 30 weeks, study length 49 weeks) of 4.5 mg/kg/day, a TD50 (mouse, strain Charles River CD1, females, by gavage, site: esophagus, lesion: squamous-cell papilloma, dosed 30 weeks, study length 62 weeks) of 12.7 mg/kg/day and a TD50 (mouse, strain Charles River CD1, females, by gavage, site: forestomach, lesion: several types, types named in the paper, dosed 30 weeks, study length 62 weeks) of 5.65 mg/kg/day. The TD50 (mouse, strain Charles River CD1, females, by gavage, site: liver, lesion: several types, types named in the paper, dosed 30 weeks, study length 62 weeks) was 0.746 mg/kg/day, the TD50 (mouse, strain Charles River CD1, females, by gavage, site: lung, lesion: several types, types named in the paper, dosed 30 weeks, study length 62 weeks) was 2.71 mg/kg/day and the TD50 (mouse, strain Charles River CD1, females, by gavage, site: nasal mucosa, lesion: one or several types, types not named, dosed 30 weeks, study length 62 weeks) was 26 mg/kg/day. The TD50 (mouse, strain NZO/BlGd, females, in drinking water, site: esophagus, lesion: several types, types named in the paper, dosed 32 weeks, study length 74 weeks) was 0.725 mg/kg/day, the TD50 (mouse, strain NZO/BlGd, females, in drinking water, site: liver, lesion: hepatocellular carcinoma, dosed 32 weeks, study length 74 weeks) was 3.21 mg/kg/day and the TD50 (mouse, strain NZO/BlGd, females, in drinking water, site: oropharynx, lesion: several types, types named in the paper, dosed 32 weeks, study length 74 weeks) was 6.37 mg/kg/day. The TD50 (mouse, strain NZO/BlGd, females, in drinking water, site: stomach, glandular, lesion: several types, types named in the paper, dosed 32 weeks, study length 74 weeks) was 4.05 mg/kg/day, the TD50 (mouse, strain NZO/BlGd, females, in drinking water, site: stomach, squamous, lesion: several types, types named in the paper, dosed 32 weeks, study length 74 weeks) was 0.415 mg/kg/day and the TD50 (mouse, strain NZO/BlGd, males, in drinking water, site: esophagus, lesion: several types, types named in the paper, dosed 32 weeks, study length 60 weeks) was 0.313 mg/kg/day. The TD50 (mouse, strain NZO/BlGd, males, in drinking water, site: liver, lesion: hepatocellular carcinoma, dosed 32 weeks, study length 60 weeks) was 8.03 mg/kg/day, the TD50 (mouse, strain NZO/BlGd, males, in drinking water, site: lung, lesion: several types, types named in the paper, dosed 32 weeks, study length 60 weeks) was 1.93 mg/kg/day and the TD50 (mouse, strain NZO/BlGd, males, in drinking water, site: oropharynx, lesion: several types, types named in the paper, dosed 32 weeks, study length 60 weeks) was 1.41 mg/kg/day. The TD50 (mouse, strain NZO/BlGd, males, in drinking water, site: stomach, glandular, lesion: several types, types named in the paper, dosed 32 weeks, study length 60 weeks) was 3.23 mg/kg/day, the TD50 (mouse, strain NZO/BlGd, males, in drinking water, site: stomach, squamous, lesion: several types, types named in the paper, dosed 32 weeks, study length 60 weeks) was 0.448 mg/kg/day and the TD50 (mouse, strain SENCAR, females, by gavage, site: esophagus, lesion: squamous-cell papilloma, dosed 30 weeks, study length 67 weeks) was 6.47 mg/kg/day. For the same compound, the TD50 (mouse, strain SENCAR, females, by gavage, site: forestomach, lesion: several types, types named in the paper, dosed 30 weeks, study length 67 weeks) was 2.25 mg/kg/day, the TD50 (mouse, strain SENCAR, females, by gavage, site: liver, lesion: several types, types named in the paper, dosed 30 weeks, study length 67 weeks) was 1.92 mg/kg/day and the TD50 (mouse, strain SENCAR, females, by gavage, site: lung, lesion: several types, types named in the paper, dosed 30 weeks, study length 67 weeks) was 0.783 mg/kg/day. It also gave a TD50 (mouse, strain SENCAR, females, by gavage, site: nasal mucosa, lesion: several types, types named in the paper, dosed 30 weeks, study length 67 weeks) of 6.47 mg/kg/day.

In the case of `CC(C)(C)NC[C@H](O)COc1cccc2c1CCCC2=O`, the TD50 (mouse, strain CF-1, females, in feed, site: liver, lesion: hepatoma, dosed 78 weeks, study length 78 weeks) is reported as 5010 mg/kg/day, the TD50 (mouse, strain CF-1, females, in feed, site: lung, lesion: alveogenic adenocarcinoma, dosed 78 weeks, study length 78 weeks) is reported as 2500 mg/kg/day and the TD50 (mouse, strain CF-1, females, in feed, site: uterus, lesion: leiomyoma, dosed 78 weeks, study length 78 weeks) is reported as 1220 mg/kg/day. For the same compound, the TD50 (rat, strain Wistar albino, females, in feed, site: liver, lesion: hepatoma, benign, dosed 104 weeks, study length 104 weeks) was 2360 mg/kg/day, the TD50 (rat, strain Wistar albino, females, in feed, site: mammary gland, lesion: fibroadenoma, dosed 104 weeks, study length 104 weeks) was 71 mg/kg/day and the TD50 (rat, strain Wistar albino, males, in feed, site: liver, lesion: hepatoma, benign, dosed 104 weeks, study length 104 weeks) was 982 mg/kg/day. It also gave a TD50 (rat, strain Wistar albino, males, in feed, site: pituitary gland, lesion: adenoma, dosed 104 weeks, study length 104 weeks) of 71.9 mg/kg/day.

In the case of `Cc1ccc(C)c(OCCCC(C)(C)C(=O)O)c1`, the TD50 (mouse, strain Charles River CD1, females, in feed, site: any site (literature study), lesion: several types, types named in the paper, dosed 78 weeks, study length 78 weeks) is reported as 1690 mg/kg/day (inactive), the TD50 (mouse, strain Charles River CD1, females, in feed, site: liver, lesion: hepatocellular adenoma, dosed 78 weeks, study length 78 weeks) is reported as 6600 mg/kg/day (inactive) and the TD50 (mouse, strain Charles River CD1, females, in feed, site: lung, lesion: several types, types named in the paper, dosed 78 weeks, study length 78 weeks) is reported as 11800 mg/kg/day (inactive). For the same compound, the carcinogen call (mouse, strain Charles River CD1, males, in feed, site: any site (literature study), lesion: several types, types named in the paper, dosed 78 weeks, study length 78 weeks) was “negative (inactive)”, the TD50 (mouse, strain Charles River CD1, males, in feed, site: liver, lesion: several types, types named in the paper, dosed 78 weeks, study length 78 weeks) was 1660 mg/kg/day (inactive) and the carcinogen call (mouse, strain Charles River CD1, males, in feed, site: lung, lesion: several types, types named in the paper, dosed 78 weeks, study length 78 weeks) was “negative (inactive)”. For the same compound, the carcinogen call (rat, strain Charles River CD (Sprague-Dawley), females, in feed, site: any site (literature study), lesion: several types, types named in the paper, dosed 104 weeks, study length 104 weeks) was “negative (inactive)”, the TD50 (rat, strain Charles River CD (Sprague-Dawley), females, in feed, site: liver, lesion: hepatocellular carcinoma, dosed 104 weeks, study length 104 weeks) was 504 mg/kg/day (inactive) and the TD50 (rat, strain Charles River CD (Sprague-Dawley), males, in feed, site: adrenal gland, lesion: pheochromocytoma, dosed 104 weeks, study length 104 weeks) was 85.9 mg/kg/day. It also gave a TD50 (rat, strain Charles River CD (Sprague-Dawley), males, in feed, site: any site (literature study), lesion: benign tumor, dosed 104 weeks, study length 104 weeks) of 196 mg/kg/day, a TD50 (rat, strain Charles River CD (Sprague-Dawley), males, in feed, site: any site (literature study), lesion: several types, types named in the paper, dosed 104 weeks, study length 104 weeks) of 202 mg/kg/day and a TD50 (rat, strain Charles River CD (Sprague-Dawley), males, in feed, site: liver, lesion: hepatocellular carcinoma, dosed 104 weeks, study length 104 weeks) of 247 mg/kg/day. It also gave a TD50 (rat, strain Charles River CD (Sprague-Dawley), males, in feed, site: pancreas, lesion: several types, types named in the paper, dosed 104 weeks, study length 104 weeks) of 161 mg/kg/day and a TD50 (rat, strain Charles River CD (Sprague-Dawley), males, in feed, site: testis, lesion: interstitial-cell tumor, dosed 104 weeks, study length 104 weeks) of 516 mg/kg/day.
